Several values for one entry are separate records, joined by “and”; a condition that tells them apart may be missing. Identical values can stand only once.

Drawing on US12084437B2, “Halo-substituted piperidines as orexin receptor modulators” (AstraZeneca AB, priority 2016, dated 2024), this text covers IC50 for 32 compounds.

One test addresses T1, OX2 (Homo sapiens, UniProt O43614).
T1 construct: expressed in transfected cells; host or cells: CHO (CHO-OX2)
T1 sequence (O43614 1-444): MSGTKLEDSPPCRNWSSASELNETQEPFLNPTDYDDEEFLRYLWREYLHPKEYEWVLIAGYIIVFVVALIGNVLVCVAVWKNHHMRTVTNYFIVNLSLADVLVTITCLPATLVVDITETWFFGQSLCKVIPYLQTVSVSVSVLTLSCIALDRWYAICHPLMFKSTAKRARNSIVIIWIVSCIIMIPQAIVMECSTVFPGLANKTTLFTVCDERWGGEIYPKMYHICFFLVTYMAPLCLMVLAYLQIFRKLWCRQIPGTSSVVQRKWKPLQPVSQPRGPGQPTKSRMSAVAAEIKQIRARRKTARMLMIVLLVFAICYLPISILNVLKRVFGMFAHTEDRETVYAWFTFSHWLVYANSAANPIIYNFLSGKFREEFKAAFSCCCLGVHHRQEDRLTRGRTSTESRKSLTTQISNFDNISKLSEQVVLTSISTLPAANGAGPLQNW
The experiment in a line: Orexin receptor cell-based functional assay, [Ca2+]i by FLIPR, CHO-OX2 cells. To be noted: FLIPR calcium, antagonism of EC90 of [OX]. The protocol: (§1) Measurement of [Ca^2+]i using a FLIPR: CHO-OX1 or CHO-OX2 cells were seeded into black-walled clear-base 384-well plates (Corning, catalog #3712) at a density of 20,000 cells per well in F12-K medium supplemented with 10% FBS and then incubated in a 5% CO2, 37° C. incubator overnight to reach 90% confluency. The cells were incubated with equal volume of calcium6 loading buffer (Molecular Devices, Inc.) containing 2.5 mM probenecid at 37° C. for 2 h, followed by test compounds (dose-range 0.1 nM-10 μM) for another 30 min. The plates were then placed into a FLIPR (Molecular Devices, Inc.) to monitor fluorescence (λ excitation 488 nm, λ emission 540 nm) before and after the addition of EC90 of [OX]. Results for exemplary compounds of Formulae (I), (Ia), (Ib), (II), (IIa), (III), (IIIa), (IV), (IVa), (V), or (Va) are shown in Table 3.

For the next test, the target named is T2, OX1 (Homo sapiens, UniProt O43613).
T2 construct: expressed in transfected cells; host or cells: CHO (CHO-OX1)
T2 sequence (O43613 1-425): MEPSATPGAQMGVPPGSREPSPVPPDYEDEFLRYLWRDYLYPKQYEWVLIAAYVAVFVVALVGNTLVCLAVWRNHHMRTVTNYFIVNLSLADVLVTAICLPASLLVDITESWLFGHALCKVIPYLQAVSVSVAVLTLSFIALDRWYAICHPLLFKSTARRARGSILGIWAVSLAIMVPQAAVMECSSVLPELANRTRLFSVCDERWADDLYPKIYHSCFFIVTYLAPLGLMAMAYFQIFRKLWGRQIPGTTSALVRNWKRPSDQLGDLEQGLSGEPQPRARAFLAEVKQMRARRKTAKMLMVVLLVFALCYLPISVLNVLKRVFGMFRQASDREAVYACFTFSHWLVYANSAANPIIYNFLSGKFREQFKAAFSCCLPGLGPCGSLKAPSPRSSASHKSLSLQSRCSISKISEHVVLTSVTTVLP
Briefly: Orexin receptor cell-based functional assay, [Ca2+]i by FLIPR, CHO-OX1 cells. To be noted: FLIPR calcium, antagonism of EC90 of [OX], read-out: OXI, IC50. The procedure: as §1, with “[OX].” for “[OX]. Results for exemplary compounds of Formulae (I), (Ia), (Ib), (II), (IIa), (III), (IIIa), (IV), (IVa), (V), or (Va) are shown in Table 3.”

By IC50 is commonly meant the concentration needed to halve the response being measured. As to `Cc1cccc(-c2cn(C)nc2C(=O)N2CC(F)(F)C[C@@H](C)[C@H]2CNc2ncc(C(F)(F)F)cn2)c1` [Compound 26], the IC50 was more than 5 µM on OX2 and 0.004 µM at OX1.

Take `COc1cccc(-c2cn(C)nc2C(=O)N2CC(F)(F)C[C@@H](C)[C@H]2CNc2ncc(C(F)(F)F)cn2)c1` [Compound 29]: the IC50 on OX2 was more than 5 µM; on OX1, 0.004 µM.

Take `C[C@@H]1CC(F)(F)CN(C(=O)c2nn(C)cc2-c2ccc(F)cc2)[C@@H]1CNc1ncc(Cl)cn1` [Compound 31]: the IC50 was more than 5 µM on OX2 and 0.004 µM at OX1.

As for `Cc1ccc(-c2cn(C)nc2C(=O)N2CC(F)(F)C[C@@H](C)[C@H]2CNc2ncc(C(F)(F)F)cn2)cc1` [Compound 32], the IC50 on OX2 is more than 5 µM; at OX1, 0.012 µM and 0.006 µM.

Regarding `C[C@@H]1CC(F)(F)CN(C(=O)c2nn(C)cc2-c2ccc(Cl)cc2)[C@@H]1CNc1ncc(C(F)(F)F)cn1` [Compound 33], the IC50 came out at 4.7 µM on OX2 and 0.004 µM at OX1.

As for `C[C@@H]1CC(F)(F)CN(C(=O)c2nn(C)cc2-c2ccccn2)[C@@H]1CNc1ncc(C(F)(F)F)cn1` [Compound 36], the half-maximal inhibitory concentration (IC50) at OX2 is more than 5 µM; on OX1, 0.019 µM.

`Cc1cccnc1-c1cn(C)nc1C(=O)N1CC(F)(F)C[C@@H](C)[C@H]1CNc1ncc(C(F)(F)F)cn1` [Compound 39]: the IC50 at OX2 was more than 5 µM; at OX1 it was 1.16 µM.

With `CCc1cnc(NC[C@@H]2[C@H](C)CC(F)(F)CN2C(=O)c2nn(C)cc2-c2ccc(F)cn2)nc1` [Compound 41], the IC50 at OX2 and on OX1 was more than 5 µM each time.

For `C[C@@H]1CC(F)(F)CN(C(=O)c2nn(C)cc2-c2ccc(F)cn2)[C@@H]1CNc1ncc(C(F)(F)F)cn1` [Compound 42], the half-inhibitory concentration (IC50) on OX2 was more than 5 µM; at OX1, more than 1 µM.

For `Cc1ccc(-c2cn(C)nc2C(=O)N2CC(F)(F)C[C@@H](C)[C@H]2CNc2ncc(C(F)(F)F)cn2)nc1` [Compound 44], the IC50 was more than 5 µM at OX2 and 0.01 µM on OX1.

On to `COc1ccc(-c2cn(C)nc2C(=O)N2CC(F)(F)C[C@@H](C)[C@H]2CNc2ncc(C(F)(F)F)cn2)nc1` [Compound 45], for which the values for the IC50 on OX2 and on OX1 were more than 5 µM and 0.047 µM, respectively.

As to `Cc1cccc(-c2cn(C)nc2C(=O)N2CC(F)(F)C[C@@H](C)[C@H]2CNc2ncc(C(F)(F)F)cn2)n1` [Compound 46], the IC50 is more than 5 µM on OX2 and 0.007 µM on OX1.

Turning to `Cc1nc(-c2ccccc2)c(C(=O)N2CC(F)(F)C[C@@H](C)[C@H]2CNc2ncc(C(F)(F)F)cn2)s1` [Compound 48], the IC50 on OX2 was more than 5 µM; at OX1 it was 0.607 µM.

Consider `Cc1nc(C(=O)N2CC(F)(F)C[C@@H](C)[C@H]2CNc2ncc(C(F)(F)F)cn2)c(-c2ncccn2)s1` [Compound 49], for which the IC50 on OX2 was more than 5 µM; at OX1, 0.006 µM.

As to `Cc1nc(C(=O)N2CC(F)(F)C[C@@H](C)[C@H]2CNc2ncc(Cl)cn2)c(-c2ncccn2)s1` [Compound 50], the IC50 on OX2 was more than 5 µM; at OX1, 0.02 µM.

With `Cc1ccc(-c2ccccc2)c(C(=O)N2CC(F)(F)C[C@@H](C)[C@H]2CNc2ncc(C(F)(F)F)cn2)n1` [Compound 51], the values for the 50% inhibitory concentration (IC50) on OX2 and at OX1 were more than 5 µM and 0.004 µM, respectively.

As for `Cc1ccc(-c2ccccc2)c(C(=O)N2CC(F)(F)C[C@@H](C)[C@H]2CNc2ncc(Cl)cn2)n1` [Compound 52], the IC50 was more than 5 µM at OX2 and 0.009 µM on OX1.

As for `C[C@@H]1CC(F)(F)CN(C(=O)c2cc(C#N)ccc2-c2ccc(F)cc2)[C@@H]1CNc1ncc(Cl)cn1` [Compound 53], the IC50 was more than 5 µM on OX2 and 0.029 µM at OX1.

Take `C[C@@H]1CC(F)(F)CN(C(=O)c2cc(F)ccc2-c2ncccn2)[C@@H]1CNc1ncc(C(F)(F)F)cn1` [Compound 54]: the IC50 was more than 5 µM at OX2 and 0.043 µM on OX1.

With `Cc1ccc(-c2ncccn2)c(C(=O)N2CC(F)(F)C[C@@H](C)[C@H]2CNc2ncc(C(F)(F)F)cn2)c1` [Compound 55, ((2S,3R)-5,5-difluoro-3-methyl-2-(((5-(trifluoromethyl)pyrimidin-2-yl)amino)methyl)piperidin-1-yl)(5-methyl-2-(pyrimidin-2-yl)phenyl)methanone], the IC50 on OX2 was more than 5 µM; on OX1 it was 0.03 µM.

Consider `C[C@@H]1CC(F)(F)CN(C(=O)c2cc(Cl)ccc2-c2ncccn2)[C@@H]1CNc1ncc(C(F)(F)F)cn1` [Compound 56, (5-chloro-2-(pyrimidin-2-yl)phenyl)((2S,3R)-5,5-difluoro-3-methyl-2-(((5-(trifluoromethyl)pyrimidin-2-yl)amino)methyl)piperidin-1-yl)methanone], for which the IC50 on OX2 was more than 5 µM; at OX1, 0.007 µM.

As for `C[C@@H]1CC(F)(F)CN(C(=O)c2cc(Cl)ccc2-c2ncccn2)[C@@H]1CNc1ncc(Cl)cn1` [Compound 57, (5-chloro-2-(pyrimidin-2-yl)phenyl)((2S,3R)-2-(((5-chloropyrimidin-2-yl)amino)methyl)-5,5-difluoro-3-methylpiperidin-1-yl)methanone], the IC50 on OX2 was more than 5 µM; at OX1, 0.024 µM.

For the compound `Cc1ccc(-c2sc(C)nc2C(=O)N2CC(F)(F)C[C@@H](C)[C@H]2CNc2ncc(C(F)(F)F)cn2)cc1` [Compound 64], the IC50 at OX2 was more than 5 µM; at OX1 it was 0.004 µM.

For the compound `Cc1nc(C(=O)N2CC(F)(F)C[C@@H](C)[C@H]2CNc2ncc(C(F)(F)F)cn2)c(-c2ccccc2)s1` [Compound 65], the IC50 at OX2 was more than 5 µM; at OX1 it was 0.002 µM.

As to `Cc1nc(C(=O)N2CC(F)(F)C[C@@H](C)[C@H]2CNc2ncc(C(F)(F)F)cn2)c(-c2ccccc2F)s1` [Compound 66], the IC50 on OX2 stood at 2.08 µM; on OX1, 0.001 µM.

Turning to `Cc1nc(C(=O)N2CC(F)(F)C[C@@H](C)[C@H]2CNc2ncc(C(F)(F)F)cn2)c(-c2cccc(F)c2)s1` [Compound 67], the results for the IC50 at OX2 and at OX1 were 1.11 µM and 0.005 µM, respectively.

Turning to `Cc1nc(C(=O)N2CC(F)(F)C[C@@H](C)[C@H]2CNc2ncc(C(F)(F)F)cn2)c(-c2ccc(F)cc2)s1` [Compound 68, ((2S,3R)-5,5-difluoro-3-methyl-2-(((5-(trifluoromethyl)pyrimidin-2-yl)amino)methyl)piperidin-1-yl)(5-(4-fluorophenyl)-2-methylthiazol-4-yl)methanone], the IC50 on OX2 is more than 5 µM; at OX1 it was 0.008 µM.

In the case of `Cc1nc(C(=O)N2CC(F)(F)C[C@@H](C)[C@H]2CNc2ncc(Cl)cn2)c(-c2ccc(F)cc2)s1` [Compound 69], the results for the IC50 at OX2 and at OX1 were more than 5 µM and 0.009 µM, respectively.

`Cc1nc(C(=O)N2CC(F)(F)C[C@@H](C)[C@H]2CNc2ncc(C(F)(F)F)cn2)c(-c2ccccn2)s1` [Compound 70]: the IC50 on OX2 is more than 5 µM; at OX1, 0.005 µM.

As for `Cc1nc(C(=O)N2CC(F)(F)C[C@@H](C)[C@H]2CNc2ncc(C(F)(F)F)cn2)c(-c2ccc(F)cn2)s1` [Compound 72], the values for the IC50 on OX2 and on OX1 were more than 5 µM and 0.237 µM, respectively.

Turning to `Cc1ccnc(-c2sc(C)nc2C(=O)N2CC(F)(F)C[C@@H](C)[C@H]2CNc2ncc(C(F)(F)F)cn2)c1` [Compound 74], the IC50 on OX2 was more than 5 µM; on OX1 it was 0.006 µM.

For the compound `Cc1nc(C(=O)N2CC(F)(F)C[C@@H](C)[C@H]2CNc2ncc(C(F)(F)F)cn2)c(-c2ncccc2C)s1` [Compound 75], the IC50 on OX2 is more than 5 µM; at OX1, 0.012 µM.
